Data set [1] relates to flumatinib metabolism in RLM. The experiment in a line: Inhibition of flumatinib metabolism in rat liver microsome incubation (UPLC-MS/MS). Conditions: rat, rat liver microsomes. For orientation: Liver microsomes are a subcellular fraction often used to study metabolism.
Data set [2] concerns the target flumatinib metabolism in HLM (Homo sapiens, UniProt P08684). As to the kind of experiment: Inhibition of flumatinib metabolism in human liver microsome incubation (UPLC-MS/MS).
Data set [3] relates to rat liver microsomes (RLM). The experiment in a line: Inhibition of flumatinib metabolism in rat liver microsome incubation (UPLC-MS/MS). As to conditions: flumatinib metabolism in RLM.
Data set [4] in a line: Pharmacokinetics of flumatinib and M1 in SD rats with or without isavuconazole. The data set is classed as in vivo, Sprague-Dawley male rats. Conditions: for AUC(0-inf) / AUC(0-t) / Cmax / Tmax / half-life / CL/F / MRT last / MRT inf: male, Sprague-Dawley, rat, plasma, po, 60 mg/kg; for CL/F: read-out: CLz/F (converted); for MRT last: read-out: MRT0→t; for MRT inf: read-out: MRT0→∞. Here is the method: Quantification of the analytes was made by using a Waters XEVO TQS triple quadruple mass spectrometer with a multiple reaction monitoring (MRM) in positive ion mode. The mobile phase was consisted of 0.1% formic acid aqueous solution (A) and acetonitrile (B) at a flow rate of 0.4 mL/min. An elution program of 90% A (0–0.5 min), 90%–10% A (0.5–1.0 min), 10% A (1–1.5 min), 10%–90% A (1.5–1.6 min) and 90% A (1.6–2 min) was performed. The whole elution took 2 min. During the analysis, the temperature of the column and autosampler rack was controlled at 40°C and 10°C, respectively.
Sprague–Dawley male rats (SD male rats, 200 ± 20 g) were purchased from the Animal Experimental Center of The First Affiliated Hospital of Wenzhou Medical University (Zhejiang, China). […] The rats in both groups started fasting for 12 h ahead of the experiment, but were free to water. […] Tail vein blood samples were collected from rats in both groups at multiple time points (0.67, 1, 1.5, 2, 3, 4, 6, 8, 12, and 24 h). Subsequently, an additional 300 μL acetonitrile and 20 μL dasatinib (200 ng/mL) were added to 100 μL plasma. Then the mixture was vortexed to mix thoroughly for 2 min and centrifuged at 13,000 rpm for 10 min to obtain the final supernatant for UPLC-MS/MS analysis.
IC50 and enzyme kinetic parameters were obtained using GraphPad Prism 8.0 software (GraphPad software Inc., CA, United States). Non-compartmental analysis was performed by using Drugs and Statistics (DAS) software (version 3.0 software, Shanghai University of Traditional Chinese Medicine, China) to obtain pharmacokinetic profiles. Mean plasma concentration-time curves were generated using Origin 8.0, and the parameters were statistically investigated between groups using independent samples t-test by SPSS 24.0 software (SPSS Inc., Chicago, IL, United States). All data were expressed as mean ± SD and p < 0.05 was considered statistically significant.

Details of data set [5]: method as in McCarthy et al., 2018. As to conditions: co-administration with isavuconazole; ref McCarthy et al., 2018; cited from earlier work.
Data set [6] deals with flumatinib metabolism in HLM (CYP3A4; ketoconazole as positive control) (Homo sapiens, UniProt P08684). The experiment in a line: Inhibition of flumatinib metabolism in human liver microsome incubation (UPLC-MS/MS). Conditions: human liver microsomes, probe flumatinib […] (at Km).
Data set [7] has as its target recombinant human CYP3A4 (rCYP3A4) (Homo sapiens, UniProt P08684). The experiment in a line: Inhibition of flumatinib metabolism in recombinant human CYP3A4 incubation (UPLC-MS/MS).
For data set [8], the system named is rat liver microsomes (RLM). The experiment in a line: Michaelis-Menten kinetics of flumatinib metabolism in RLM. The data set is classed as in vitro ADME. Conditions: flumatinib as substrate, RLM 0.4 mg/mL. As for the experimental part: An in vitro liver microsome incubation system was set up, then the drug was added to the system and incubated for […] as to determine the metabolism of the drug by the microsomes. […] The NADPH-free mixture was preincubated at 37°C for 5 min, followed by the addition of 1 mM NADPH to activate the reaction. The mixture was incubated at 37 °C for 40 min until 20 μL of IS solution (200 ng/mL) and 400 μL of cool acetonitrile were added. It was then centrifuged at 13,000 rpm for 5 min. After that, 100 μL of the supernatant was taken to conduct the analysis by UPLC-MS/MS.

[9] abbreviates: probe flumatinib (2.17 µM in RLM, at Km).
The mark [10] stands for this setting: group A: 60 mg/kg flumatinib dosed orally alone.
[11] abbreviates: group B: 20 mg/kg isavuconazole and 60 mg/kg flumatinib dosed orally.
The mark [12] stands for this setting: with 20 mg/kg isavuconazole vs flumatinib alone.

“Also recorded” adds a separate entry of the source. Where two headings read alike, the source gives them in different places.

Data on 10 molecules can be found in paper PMC10192561 (Frontiers in Pharmacology, 2023).

Sequence of flumatinib metabolism in HLM (P08684 2-503): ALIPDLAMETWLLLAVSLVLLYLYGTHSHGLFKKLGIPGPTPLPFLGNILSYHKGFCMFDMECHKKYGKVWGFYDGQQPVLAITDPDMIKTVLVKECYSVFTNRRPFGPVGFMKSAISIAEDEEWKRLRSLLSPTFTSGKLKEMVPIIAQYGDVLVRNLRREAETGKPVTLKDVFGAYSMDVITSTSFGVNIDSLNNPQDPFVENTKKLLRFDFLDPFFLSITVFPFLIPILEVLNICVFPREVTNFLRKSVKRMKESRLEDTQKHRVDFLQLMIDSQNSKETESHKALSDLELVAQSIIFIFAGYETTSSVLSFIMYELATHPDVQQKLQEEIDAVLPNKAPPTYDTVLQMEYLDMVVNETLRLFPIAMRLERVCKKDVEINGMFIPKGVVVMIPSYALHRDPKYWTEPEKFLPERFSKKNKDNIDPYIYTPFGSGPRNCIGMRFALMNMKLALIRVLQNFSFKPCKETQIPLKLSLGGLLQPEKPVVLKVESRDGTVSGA
Sequence of recombinant human CYP3A4 (rCYP3A4) (P08684 whole entry): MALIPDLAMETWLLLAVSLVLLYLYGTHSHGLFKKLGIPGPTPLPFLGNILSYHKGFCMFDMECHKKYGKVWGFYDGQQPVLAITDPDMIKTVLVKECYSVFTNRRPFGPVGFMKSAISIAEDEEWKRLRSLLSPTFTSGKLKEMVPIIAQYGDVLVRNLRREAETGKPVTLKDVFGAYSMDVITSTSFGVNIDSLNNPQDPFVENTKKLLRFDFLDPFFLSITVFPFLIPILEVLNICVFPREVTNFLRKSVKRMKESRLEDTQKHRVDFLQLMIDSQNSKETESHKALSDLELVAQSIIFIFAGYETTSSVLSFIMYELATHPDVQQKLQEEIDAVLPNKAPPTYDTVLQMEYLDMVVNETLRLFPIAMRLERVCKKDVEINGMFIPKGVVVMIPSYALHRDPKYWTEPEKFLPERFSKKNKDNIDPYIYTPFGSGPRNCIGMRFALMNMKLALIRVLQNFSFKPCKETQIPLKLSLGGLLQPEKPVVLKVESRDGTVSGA
Sequence of flumatinib metabolism in HLM (CYP3A4; ketoconazole as positive control) (P08684 2-503): as the sequence (P08684 2-503) above

As a reminder, the IC50 is the concentration needed to halve the response being measured. Lower therefore signals inhibition by little substance. With `CC[C@@H]([C@H](C)O)n1ncn(-c2ccc(N3CCN(c4ccc(OC[C@@H]5CO[C@@](Cn6cncn6)(c6ccc(F)cc6F)C5)cc4)CC3)cc2)c1=O` [posaconazole], the IC50 at 40 min is 1.53 µM in data set [1] (setting [9]) and 1.72 µM in data set [2] (human liver microsomes, probe flumatinib ([…] in HLM, at Km)).

As a reminder, the Ki is a dissociation constant, usually derived from enzyme kinetics or from competition with a known ligand. The low end stands for a stronger hold on the target, the high end for a looser hold on the target. `CC(=O)N1CCN(c2ccc(OCC3COC(Cn4ccnc4)(c4ccc(Cl)cc4Cl)O3)cc2)CC1` (stereo not drawn) [ketoconazole]: in data set [3], the Inhibition type entry is listed as “mixed inhibitory mechanisms; also recorded: Mixed inhibition” and the affinity, expressed as Ki, was 0.33 µM.

As usually defined, the AUC(0-inf) is the area under the concentration-time curve extrapolated to infinity. High values mean high exposure, low ones low exposure. As usually defined, the AUC(0-t) is exposure summed from dosing to a finite time, without extrapolation to infinity. Broadly, the Cmax is the highest concentration seen after dosing. As usually defined, the Tmax is the time at which the peak concentration occurs. What is called half-life is how long it takes for the measured level to halve. Low readings indicate rapid decline, high ones slow decline. As to `Cc1ncc(NC(=O)c2ccc(CN3CCNCC3)c(C(F)(F)F)c2)cc1Nc1nccc(-c2cccnc2)n1` [M1, N-desmethyl flumatinib], the “effect of isavuconazole on pharmacokinetic parameters of the metabolite” value in data set [4] (combination vs control group) was “no effect; also recorded: No statistical significances”. In data set [4] (setting [10]), the AUC(0-inf) turned out to be 314 ± 134 ng·h/mL, the AUC(0-t) was 282 ± 135 ng·h/mL, the Cmax was 19.9 ± 32.8 ng/mL and the Tmax came out at 2.6 ± 1.14 h. Further, in data set [4] (setting [10]), the half-life is 5.28 ± 1.24 h, the CL/F is 3940 mL/min/kg, the MRT last came out at 6.73 ± 1.68 h and the MRT inf was 8.86 ± 1.39 h. In data set [4] (setting [11]), the AUC(0-inf) was found to be 395 ± 63.1 ng·h/mL, the AUC(0-t) turned out to be 352 ± 49.8 ng·h/mL, the Cmax turned out to be 31.9 ± 3.98 ng/mL and the Tmax came to 5 ± 2.45 h. In data set [4] (setting [11]), the half-life was 7.29 ± 2.01 h, the CL/F is 2580 mL/min/kg, the MRT last was determined as 8.2 ± 0.19 h and the MRT inf was found to be 11.2 ± 1.53 h.

`OC(Cn1cncn1)(Cn1cncn1)c1ccc(F)cc1F` [fluconazole]: the IC50 at 40 min was found to be 24.8 µM in data set [1] (setting [9]) and 92.6 µM in data set [2].

`CO[C@H]1C[C@@H]2CC[C@@H](C)[C@@](O)(O2)C(=O)C(=O)N2CCCC[C@H]2C(=O)O[C@H]([C@H](C)C[C@@H]2CC[C@@H](O)[C@H](OC)C2)CC(=O)[C@H](C)/C=C(\C)[C@@H](O)[C@@H](OC)C(=O)[C@H](C)C[C@H](C)/C=C/C=C/C=C/1C` [sirolimus]: the “AUC increase when combined with isavuconazole” value in data set [5] is on record as 84%.

As for `CCC(C)n1ncn(-c2ccc(N3CCN(c4ccc(OCC5COC(Cn6cncn6)(c6ccc(Cl)cc6Cl)O5)cc4)CC3)cc2)c1=O` (stereo not drawn) [itraconazole], the IC50 at 40 min in data set [1] (setting [9]) came out at 1.06 µM; in data set [2], 11.6 µM.

As for `C[C@@H](c1nc(-c2ccc(C#N)cc2)cs1)[C@](O)(Cn1cncn1)c1cc(F)ccc1F` [isavuconazole], the results for the IC50 at 40 min in data set [1] (probe flumatinib 2.17 µM (at Km)) and in data set [6] were 0.62 µM and 6.66 µM, respectively. Also, the Inhibition type result in data set [3] is “mixed inhibitory mechanisms; also recorded: mixed type; also recorded: a mixture of competitive and non-competitive inhibition; also recorded: Mixed inhibition”; in data set [7] it was “mixed inhibitory mechanisms; also recorded: mixed type; also recorded: a mixture of competitive and non-competitive inhibition; also recorded: Mixed inhibition”. This molecule returned a Ki in data set [3] of 1.44 µM. Besides, the α in data set [3] was 0.52; in data set [7] it was 0.71.

What is called Km is the concentration of substrate that gives half-maximal velocity. Turning to `Cc1ncc(NC(=O)c2ccc(CN3CCN(C)CC3)c(C(F)(F)F)c2)cc1Nc1nccc(-c2cccnc2)n1` [flumatinib], in data set [4] (setting [10]), the AUC(0-inf) worked out at 3040 ± 664 ng·h/mL, the AUC(0-t) was 2750 ± 887 ng·h/mL, the Cmax turned out to be 282 ± 36.8 ng/mL and the Tmax turned out to be 6 ± 2.74 h. Also, in data set [4] (setting [10]), the half-life is 4.04 ± 2.65 h, the CL/F was 340 mL/min/kg, the MRT last amounted to 6.82 ± 1.94 h and the MRT inf is 7.66 ± 2.01 h. In data set [4] (setting [11]), the total exposure AUC(0-inf) was 5710 ± 744 ng·h/mL, the exposure AUC(0-t) is 4730 ± 1290 ng·h/mL, the Cmax came to 481 ± 33.3 ng/mL and the Tmax worked out at 4.4 ± 1.52 h. For the same molecule, in data set [4] (setting [11]), the half-life is 4.88 ± 2.91 h, the CL/F was 177 mL/min/kg, the MRT last amounted to 6.87 ± 1.33 h and the MRT inf stood at 9.2 ± 3.59 h. Also, in data set [4] (setting [12]), the “AUC(0–t), group B relative to group A” value turned out to be 1.72 fold; the “AUC(0–∞), group B relative to group A” value came to 1.88 fold; the “CLz/F lower than group A” value turned out to be 48%; the “Cmax, group B relative to group A” value was 1.70 fold. In data set [8], the Km turned out to be 2.2 µM.

Regarding `C[C@@H](c1ncncc1F)[C@](O)(Cn1cncn1)c1ccc(F)cc1F` [voriconazole], the values for the half-maximal inhibitory concentration (IC50) at 40 min in data set [1] (setting [9]) and in data set [2] were 12.4 µM and 325 µM, respectively.

For `C=CC[C@@H]1/C=C(\C)C[C@H](C)C[C@H](OC)[C@H]2O[C@@](O)(C(=O)C(=O)N3CCCC[C@H]3C(=O)O[C@H](/C(C)=C/[C@@H]3CC[C@@H](O)[C@H](OC)C3)[C@H](C)[C@@H](O)CC1=O)[C@H](C)C[C@@H]2OC` [tacrolimus], the “AUC increase when combined with isavuconazole” value in data set [5] was 125%.
